Patent US20240352029A1, “CDK Inhibitors And Their Use As Pharmaceuticals” (Prelude Therapeutics Incorporated, priority 2023, published 2024)

Columns and labels:
CDK2/Cyclin E2 = CDK2/Cyclin E2 (Homo sapiens, UniProt P24941); assay: CDK2/CyclinE2 enzymatic activity assay (TR-FRET); type: biochemical; conditions: ATP 1 mM final, read-out: CDK2_E1 IC50
Experimental: CDK2/CyclinE2 Enzymatic Activity Assay
(§1) The inhibitory activity of compounds was evaluated in vitro using TR-FRET assay with white 384-well low volume microplate (Greiner Bio-One). CDK2/Cyclin E2 catalyzed phosphorylation of peptide in the presence and absence of compounds was measured and used in IC50 determination. Recombinant protein complex CDK2/Cyclin E2, expressed from insect cell, was purchased from ProQinase. Testing compounds were dissolved in DMSO at 1 mM and tested in 9-dose IC50 mode. The reaction mixture was prepared by mixing CDK2/CyclinE2 (1 nM final), ULight-4E-BP1 (50 nM final, Perkinelmer, TRF0128-D), and ATP (1 mM final) in assay buffer (20 mM of HEPES pH 7.4, 1 mM of EGTA, 0.05% BSA, 0.005% Tween 20, and 1 mM TCEP). The compound of interest in DMSO was added to each well in 3-fold serial dilution by dispenser (TECAN D300E) to make a 9.9 μL of reaction mixture. After 20 minutes preincubation at room temperature, 0.1 μL MgCl2 (10 mM final) was added to initiate the reaction. Following a 45 minutes incubation at 37° C., the reaction was stopped by addition of 2 μL of quenching buffer consisting of Lance detection buffer (Perkinelmer CR97-100C), LANCE Ultra Europium-anti-P-4E-BP1 (Perkinelmer, TRF0216-D), EDTA, and incubate at room temperature for additional 60 minutes in dark. The reaction signal was measured by Envision multimode plate reader (PerkinElmer, 2102-0010). IC50 values were determined by fitting the data to the standard 4 parameters with Hill Slope using GraphPad Prism software.

CDK4/Cyclin D1 = target: T1, CDK4/Cyclin D1 (Homo sapiens, UniProt P11802); assay: CDK4/CyclinD1 enzymatic activity assay (TR-FRET); type: biochemical; conditions: ATP 2 mM final, read-out: CDK4_D1 IC50
T1 construct: purchased ProQinase; host or cells: insect cell
Experimental: CDK4/CyclinD1 Enzymatic Activity Assay
as §1, with “Bio-One). CDK4/Cyclin D1” for “Bio-One). CDK2/Cyclin E2”, “complex CDK4/Cyclin D1,” for “complex CDK2/Cyclin E2,”, “mixing CDK4/CyclinD1” for “mixing CDK2/CyclinE2”, “ULight-4E-BP1 (100” for “ULight-4E-BP1 (50”, “ATP (2” for “ATP (1”

OVCAR3 p-RB = assay: pRB ICW assay in OVCAR3 cells; type: cell-based; conditions: Homo sapiens, OVCAR-3, 2 hours incubation with compound
Experimental: pRB ICW Assay in OVCAR3 Cells
OVCAR3 cells were maintained in RPMI (Corning, Catalog #: 10-040-CV) supplemented with 10% v/v FBS (Gibco, Catalog #: 26140-079), 1% v/v Penicillin Streptomycin (Gibco, Catalog #15140-122.) OVCAR3 cells grown at log phase were trypsinized, counted, and resuspended in fresh medium to reach a final density of 6.7e4 cells/ml and 75 μL of culture were dispensed into a 384-well plate (Falcon, cat #353962) using Multidrop Combi dispenser (Thermo Scientific). The next day, compounds were dispensed as a 9-point, ½ log serial dilution using a Tecan digital dispenser (D300e), and cells were incubated with compound for 2 hours in a humidified incubator at 37° C. A reference compound at a final concentration of 10 μM was used as a control for maximum inhibition. Each compound was tested in duplicates in each experiment. At the end of the incubation, 25 μl of 16% paraformaldehyde (Electron Microscopy, cat #15710) was slowly added to each well and the plate was incubated at room temperature (RT) for 30 minutes to fix cells. Cells were then permeabilized by incubating with 50 μl/well of wash buffer (1×PBS with 0.1% Triton X-100) 5×5 minutes, followed by 1 hour blocking with 30 μl/well of Odyssey blocking buffer (Li—COR, cat #927-40000), all at RT. Anti-phosphor RB antibody (Cell signaling 8516S) was diluted 1:1000 in Odyssey blocking buffer and 20 μl was added to all wells and incubated overnight in 4° C. with gently rocking. The next day, cells were washed 5×5 min with 50 μl/well of wash buffer, followed with 1 hour incubation with secondary antibody and DRAQ5 diluted in Odyssey blocking buffer (1:500 dilution for secondary antibody and 1:2000 dilution for DRAQ5), 5×5 min washes, and one last wash with water. Plates were dried in 37° C. oven for 5 min and scanned using Li—COR Odyssey CLx imaging system to acquire intensities at 700 and 800 nm channels.

T1 sequence (P11802 whole entry): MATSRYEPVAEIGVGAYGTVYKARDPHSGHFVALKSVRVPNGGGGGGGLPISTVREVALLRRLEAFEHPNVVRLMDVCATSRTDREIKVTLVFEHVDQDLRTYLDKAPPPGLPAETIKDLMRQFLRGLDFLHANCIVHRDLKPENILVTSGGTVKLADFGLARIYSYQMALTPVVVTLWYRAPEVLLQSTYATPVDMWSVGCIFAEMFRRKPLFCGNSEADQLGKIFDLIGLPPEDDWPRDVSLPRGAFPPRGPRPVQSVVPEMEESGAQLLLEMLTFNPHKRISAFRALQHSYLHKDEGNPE
T1 sequence (P24385 whole entry partner): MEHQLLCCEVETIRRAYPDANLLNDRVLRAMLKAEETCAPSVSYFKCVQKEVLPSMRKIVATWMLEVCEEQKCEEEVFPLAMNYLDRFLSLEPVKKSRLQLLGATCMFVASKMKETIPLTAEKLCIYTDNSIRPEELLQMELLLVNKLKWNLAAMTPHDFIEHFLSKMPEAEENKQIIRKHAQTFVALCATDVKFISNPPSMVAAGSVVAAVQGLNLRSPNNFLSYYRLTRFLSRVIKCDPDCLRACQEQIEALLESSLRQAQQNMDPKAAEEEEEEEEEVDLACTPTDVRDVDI

IC50 (CDK2/Cyclin E2) [µM]	IC50 (CDK4/Cyclin D1) [µM]	IC50 (OVCAR3 p-RB) [µM]	SMILES
≤ 0.1	≤ 0.1	≤ 0.1	Cc1c(-c2nc(NC3CCN(S(C)(=O)=O)CC3)ncc2F)sc2c1C(=O)NC2(C)C [Example 3, 2-(5-fluoro-2-((1-(methylsulfonyl)piperidin-4-yl)amino)pyrimidin-4-yl)-3,6,6-trimethyl-5,6-dihydro-4H-thieno[2,3-c]pyrrol-4-one]
≤ 0.1	≤ 0.1	≤ 0.1	C[C@@H]1CN(S(=O)(=O)c2cnn(C)c2)CC[C@@H]1Nc1ncc(C(F)(F)F)c(-c2cc3c(s2)CNC3=O)n1 [Example 21, 2-(2-(((3R,4S)-3-methyl-1-((1-methyl-1H-pyrazol-4-yl)sulfonyl)piperidin-4-yl)amino)-5-(trifluoro-methyl)pyrimidin-4-yl)-5,6-dihydro-4H-thieno[2,3-c]pyrrol-4-one]
≤ 0.1	≤ 0.1	≤ 0.1	C[C@@H]1CN(S(=O)(=O)c2c[nH]cn2)CC[C@@H]1Nc1ncc(C(F)(F)F)c(-c2cc3c(s2)C(C)(C)NC3=O)n1 [Example 10, 2-(2-(((3R,4S)-1-((1H-imidazol-4-yl)sulfonyl)-3-methylpiperidin-4-yl)amino)-5-(trifluoro-methyl)pyrimidin-4-yl)-6,6-dimethyl-5,6-dihydro-4H-thieno[2,3-c]pyrrol-4-one]
≤ 0.1	≤ 0.1	≤ 0.1	C[C@@H]1CN(S(C)(=O)=O)CC[C@@H]1Nc1ncc(C(F)(F)F)c(-c2cc3c(s2)C(C)(C)NC3=O)n1 [Example 6, 6,6-Dimethyl-2-(2-(((3R,4S)-3-methyl-1-(methylsulfonyl)piperidin-4-yl)amino)-5-(trifluoromethyl)pyrimidin-4-yl)-5,6-dihydro-4H-thieno[2,3-c]pyrrol-4-one]
≤ 0.1	≤ 0.1	≤ 0.1	Cc1c(-c2nc(N[C@H]3CCN(S(C)(=O)=O)C[C@H]3F)ncc2F)sc2c1C(=O)NC2(C)C [Example 2, 2-(5-fluoro-2-(((3R,4S)-3-fluoro-1-(methylsulfonyl)piperidin-4-yl)amino)pyrimidin-4-yl)-3,6,6-trimethyl-5,6-dihydro-4H-thieno[2,3-c]pyrrol-4-one]
≤ 0.1	≤ 0.1	≤ 0.1	Cc1c(-c2nc(N[C@H]3CCN(S(C)(=O)=O)C[C@H]3C)ncc2F)sc2c1C(=O)NC2(C)C [Example 1, 2-(5-Fluoro-2-(((3R,4S)-3-methyl-1-(methylsulfonyl)piperidin-4-yl)amino)pyrimidin-4-yl)-3,6,6-trimethyl-5,6-dihydro-4H-thieno[2,3-c]pyrrol-4-one]
≤ 0.1	≤ 0.1	≤ 0.1	Cn1cnc(S(=O)(=O)N2CC[C@H](Nc3ncc(C(F)(F)F)c(-c4cc5c(s4)C(C)(C)NC5=O)n3)[C@H](F)C2)c1 [Example 15, 2-(2-(((3R,4S)-3-fluoro-1-((1-methyl-1H-imidazol-4-yl)sulfonyl)piperidin-4-yl)amino)-5-(trifluoro-methyl)pyrimidin-4-yl)-6,6-dimethyl-5,6-dihydro-4H-thieno[2,3-c]pyrrol-4-one]
≤ 0.1	≤ 0.1	≤ 0.1	CC1(C)NC(=O)c2cc(-c3nc(N[C@@H]4CCN(S(C)(=O)=O)C[C@H]4F)ncc3C(F)(F)F)sc21 [Example 13, 2-(2-(((3R,4R)-3-fluoro-1-(methylsulfonyl)piperidin-4-yl)amino)-5-(trifluoro-methyl)pyrimidin-4-yl)-6,6-dimethyl-5,6-dihydro-4H-thieno[2,3-c]pyrrol-4-one]
≤ 0.1	> 0.5	> 0.5	CS(=O)(=O)N1CCC(Nc2ncc(C(F)(F)F)c(-c3cc4c(s3)C(=O)NC4)n2)CC1 [Example 24, 2-(2-((1-(Methylsulfonyl)piperidin-4-yl)amino)-5-(trifluoromethyl)pyrimidin-4-yl)-4,5-dihydro-6H-thieno[2,3-c]pyrrol-6-one]
